Species on record: Rattus norvegicus
Assay: Open TG-GATES - Regimen: Single
Assay type: toxicity, organism-based, Sprague-Dawley
Design: regimen Single, gender Male, age 6 weeks
Settings: in vivo, po, route gavage; for TP / gamma-GTP / A/G / ALP / ALT / AST / BUN / CRE / Ca / Cl / GLC / IP / K / LDH / Na / PL / RALB / TC / TG: tissue Plasma; for APTT / Bas / Eos / Fbg / Hb / Ht / Lym / MCH / MCHC / MCV / Mono / Neu / PT / Plat / RBC / Ret / WBC: tissue Blood; for KIDNEY_L / KIDNEY_R / KIDNEY_TOTAL: tissue Kidney; for LIVER: tissue Liver
[1] = 1000 mg/kg, 24 h, dose level Middle
[2] = 2000 mg/kg, 3 h, dose level High
[3] = 2000 mg/kg, 6 h, dose level High
[4] = 2000 mg/kg, 9 h, dose level High
[5] = 2000 mg/kg, 24 h, dose level High

O=C(O)c1ccccc1Nc1ccccc1 [FENAMIC ACID]
TP [1]: 5.6 g/dL
gamma-GTP [1]: 1 IU/L
TERMINAL_BW [2]: 207.1 g
APTT [2]: 15.4 s
Bas [2]: 0.8%
Eos [2]: 0.8%
Fbg [2]: 258.2 mg/dL
Hb [2]: 13.6 g/dL
Ht [2]: 39.9%
Lym [2]: 67.4%
MCH [2]: 20.6 pg
MCHC [2]: 34.1%
MCV [2]: 60.6 fL
Mono [2]: 3.2%
Neu [2]: 28%
PT [2]: 13.9 s
Plat [2]: 113.5 x10_4/uL
RBC [2]: 658.8 x10_4/ul
Ret [2]: 7.9%
WBC [2]: 76.3 x10_2/uL
KIDNEY_L [2]: 0.9 g
KIDNEY_R [2]: 0.9 g
KIDNEY_TOTAL [2]: 1.9 g
LIVER [2]: 7.7 g
A/G [2]: 0.9
ALP [2]: 1464.2 IU/L
ALT [2]: 41 IU/L
AST [2]: 75.6 IU/L
BUN [2]: 10.8 mg/dL
CRE [2]: 0.1 mg/dL
Ca [2]: 10.9 mg/dL
Cl [2]: 102.8 meq/L
GLC [2]: 181.8 mg/dL
IP [2]: 10.9 mg/dL
K [2]: 4.1 meq/L
LDH [2]: 88.2 IU/L
Na [2]: 143.4 meq/L
PL [2]: 93.4 mg/dL
RALB [2]: 2.6 g/dL
TC [2]: 52 mg/dL
TG [2]: 28.4 mg/dL
TP [2]: 5.5 g/dL
gamma-GTP [2]: 1.2 IU/L
TERMINAL_BW [3]: 206.9 g
APTT [3]: 15.5 s
Bas [3]: 0.8%
Eos [3]: 1%
Fbg [3]: 277.4 mg/dL
Hb [3]: 13.7 g/dL
Ht [3]: 40.6%
Lym [3]: 71.2%
MCH [3]: 21 pg
MCHC [3]: 33.6%
MCV [3]: 62.6 fL
Mono [3]: 3%
Neu [3]: 24%
PT [3]: 14.2 s
Plat [3]: 122.7 x10_4/uL
RBC [3]: 649.2 x10_4/ul
Ret [3]: 8.1%
WBC [3]: 106.2 x10_2/uL
KIDNEY_L [3]: 1 g
KIDNEY_R [3]: 1 g
KIDNEY_TOTAL [3]: 2 g
LIVER [3]: 7.4 g
A/G [3]: 0.9
ALP [3]: 1541.4 IU/L
ALT [3]: 36.4 IU/L
AST [3]: 76.2 IU/L
BUN [3]: 12 mg/dL
CRE [3]: 0.1 mg/dL
Ca [3]: 11.2 mg/dL
Cl [3]: 105.6 meq/L
GLC [3]: 133.2 mg/dL
IP [3]: 11.6 mg/dL
K [3]: 4 meq/L
LDH [3]: 92.8 IU/L
Na [3]: 145.4 meq/L
PL [3]: 105.2 mg/dL
RALB [3]: 2.6 g/dL
TC [3]: 49.8 mg/dL
TG [3]: 34.2 mg/dL
TP [3]: 5.6 g/dL
gamma-GTP [3]: 1 IU/L
TERMINAL_BW [4]: 209.9 g
APTT [4]: 21.5 s
Bas [4]: 0.6%
Eos [4]: 1%
Fbg [4]: 307.4 mg/dL
Hb [4]: 13.6 g/dL
Ht [4]: 39.9%
Lym [4]: 64.6%
MCH [4]: 20.7 pg
MCHC [4]: 34%
MCV [4]: 60.8 fL
Mono [4]: 3.2%
Neu [4]: 30.4%
PT [4]: 14.8 s
Plat [4]: 110.5 x10_4/uL
RBC [4]: 656.8 x10_4/ul
Ret [4]: 8.2%
WBC [4]: 93.3 x10_2/uL
KIDNEY_L [4]: 1 g
KIDNEY_R [4]: 0.9 g
KIDNEY_TOTAL [4]: 1.9 g
LIVER [4]: 7.5 g
A/G [4]: 0.9
ALP [4]: 1863.4 IU/L
ALT [4]: 41.8 IU/L
AST [4]: 82.2 IU/L
BUN [4]: 14.6 mg/dL
CRE [4]: 0.1 mg/dL
Ca [4]: 11.1 mg/dL
Cl [4]: 105.6 meq/L
GLC [4]: 144.6 mg/dL
IP [4]: 11.3 mg/dL
K [4]: 3.9 meq/L
LDH [4]: 80.8 IU/L
Na [4]: 145.6 meq/L
PL [4]: 105.8 mg/dL
RALB [4]: 2.7 g/dL
TC [4]: 45 mg/dL
TG [4]: 50.2 mg/dL
TP [4]: 5.7 g/dL
gamma-GTP [4]: 1 IU/L
TERMINAL_BW [5]: 211.9 g
APTT [5]: 15.6 s
Bas [5]: 1%
Eos [5]: 0.6%
Fbg [5]: 436 mg/dL
Hb [5]: 13.9 g/dL
Ht [5]: 40.7%
Lym [5]: 55.8%
MCH [5]: 20.5 pg
MCHC [5]: 34.1%
MCV [5]: 60.2 fL
Mono [5]: 3.4%
Neu [5]: 39%
PT [5]: 15.2 s
Plat [5]: 121.1 x10_4/uL
RBC [5]: 675.2 x10_4/ul
Ret [5]: 8.7%
WBC [5]: 138 x10_2/uL
KIDNEY_L [5]: 1 g
KIDNEY_R [5]: 1 g
KIDNEY_TOTAL [5]: 2 g
LIVER [5]: 8.4 g
A/G [5]: 0.8
ALP [5]: 2104 IU/L
ALT [5]: 41.6 IU/L
AST [5]: 62.2 IU/L
BUN [5]: 19.2 mg/dL
CRE [5]: 0.1 mg/dL
Ca [5]: 11.2 mg/dL
Cl [5]: 102.8 meq/L
GLC [5]: 145.8 mg/dL
IP [5]: 9.4 mg/dL
K [5]: 3.7 meq/L
LDH [5]: 131.8 IU/L
Na [5]: 141.2 meq/L
PL [5]: 91.4 mg/dL
RALB [5]: 2.6 g/dL
TC [5]: 38.2 mg/dL
TG [5]: 49.2 mg/dL
TP [5]: 5.7 g/dL
gamma-GTP [5]: 1 IU/L
